The values that follow come from US20250161238A1, “NMDAR Antagonists Prevent Ageing and Aging-Associated Conditions and Diseases Through Increasing 20S Proteasome Activity” (priority 2022, published 2025).

The target of assay [1] is T1, proteasome (Homo sapiens, UniProt P28072+P28074+Q99436).
T1 sequence (P28074 60-263): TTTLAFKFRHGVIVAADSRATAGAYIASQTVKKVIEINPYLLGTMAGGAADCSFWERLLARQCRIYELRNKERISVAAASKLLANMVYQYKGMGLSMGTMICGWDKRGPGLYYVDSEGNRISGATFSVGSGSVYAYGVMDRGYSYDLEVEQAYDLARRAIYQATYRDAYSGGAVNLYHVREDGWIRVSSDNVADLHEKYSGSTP
T1 sequence (Q99436 44-277): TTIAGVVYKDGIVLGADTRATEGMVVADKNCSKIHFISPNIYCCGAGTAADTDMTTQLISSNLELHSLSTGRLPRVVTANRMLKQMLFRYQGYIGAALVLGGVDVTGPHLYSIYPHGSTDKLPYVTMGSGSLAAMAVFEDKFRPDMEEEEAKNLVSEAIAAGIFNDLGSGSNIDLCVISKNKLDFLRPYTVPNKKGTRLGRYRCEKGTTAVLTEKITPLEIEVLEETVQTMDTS
T1 sequence (P28072 1-239): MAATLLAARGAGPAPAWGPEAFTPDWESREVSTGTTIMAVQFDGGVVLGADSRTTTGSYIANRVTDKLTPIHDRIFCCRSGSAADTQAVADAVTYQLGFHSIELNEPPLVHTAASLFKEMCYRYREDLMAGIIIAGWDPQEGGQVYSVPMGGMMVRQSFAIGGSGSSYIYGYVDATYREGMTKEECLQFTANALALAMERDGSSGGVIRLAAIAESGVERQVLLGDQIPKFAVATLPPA
Put plainly: In-Cell Fluorogenic Proteasome Assay, HepG2. The format is cell-based. Further details: endogenous in cells; host or cells: HepG2 (A9), T98G (A10), digitonin/Tween-permeabilised whole cells. The settings on record: for trypsin, chemotrypsin and caspase-like proteasome activities: whole HepG2 cell. The method, then: (§1) For a 96-well plate format, 8×10^3 cells per well were seeded. 24 hours later medium was changed with NMDAR blocker containing medium. Two hours later 100 μl of 2× flourescence cell buffer: (1 ml 1M tris hcl ph: 7.5, 500 μl 1M KCL, 200 μl […], 200 μl 0.1M MgCL2, 50 μl % 0.2 tween 20, 75 μl digitonin 20 mg/ml in DMSO ChemCruz cat no: sc-280675, 10 μl flourescence substrates including Suc-LLVY-AMC, Z-LLE-AMC, and Ac-RLR-AMC Ac-RLR-AMC, 8.1 ml H2O). After incubation at room temperature for a 5 minutes the flourescence of each sample were measured in a flourescence spectrometer (Biotek instrument-Synergy HT).

For the next assay, the system named is p21-GFP fusion protein. Put plainly: p21-GFP fusion protein amount in cells. The format is cell-based, human.
The next assay has as its system mice with GD symptoms. The settings on record: A/J, C3H/HeJ, DBA/2J, C57BL6/JolaHsd, CBE 25 mg/kg day, cited from earlier work.
The target of assay [2] is T1, proteasome. Nature of the assay: In-Cell Fluorogenic Proteasome Assay, T98G. The format is cell-based. Details: endogenous in cells; host or cells: T98G (A10), digitonin/Tween-permeabilised whole cells. The settings on record: whole T98G cell. How it is done: as §1
A further assay relates to Ub-YFP. Nature of the assay: Ub-YFP degredation in Hep3B cells. The format is cell-based, human. How it is done: This finding was supported by the following experiments; First, a model was developed to find inhibitor or inhibitors for the ubiquitin dependent degredation in the Hep3B cell line. For this purpose Hep3B cell expressing Ub-YFP genome were prepared. Ub-YFP is a system which was used to detect the ubiquitin dependent proteasome activity (26S). It is also known that Ub-YFP is not affected by the ubiquitin-independent protesome system. In further experiments, we tested molecules which are involved in different parts of the ubiquitination processes including PYR41 (Ubiquitin-activating enzyme (E1) inhibitor), NCC697923 (UBE2N E2 ubiquitin-conjugating enzyme inhibitor), SMER3 (ubiquitin ligase E3 inhibitor), SZL-P1-411 (Skp2 E3 ligase inhibitor), SKPIN C1 (Skp2 E3 ligase inhibitor), P005091 (USP7 inhibitor), Vialin A (USP4 and USP5 inhibitor), Spautin A (USP10 and USP13 inhibitor), ML 323 (USP1-UAF1 inhibitor), IU1 (USP14 inhibitor), and Mg132 (protesome inhibitor) for the inhibition of Ub-YFP degredation. […] MG132 was used as the inhibitor of the protesome activity (FIG. 12A). In the next experiment YFP protein amount was investigated in the presence of ketamin, Pyr41, and ketamin and Pyr41 together by western blot in Hep3B cell.
The Ub-R-YFP open-reading frame was obtained from Ub-R-YFP was a gift from Nico Dantuma (Addgene plasmid #11948). Ub-R-YFP sequence was obtained from the original vector by cutting the plasmid with NheI and NotI enzymes (Thermo Scientific), blunt ended and was cloned into pBSK-clo2D which is cut by EcoRV restriction enzyme (SibEnzyme, E059). Ub-R-YFP was obtained from the pBSK-clo2D vector by cutting with BamHI. pLV-EF1a-IRES-Puro (85132-Addgene) vector was cut by BamHI restriction enzyme and dephospharylated and ligated with Ub-R-YFP. After the orientation construct was determined, pLV-EF1a-IRES-Puro-Ub-R-YFP was reproduced in large volumes using DH5a E. Coli.
Hek293T cells were transfected with the pLV-EF1a-IRES-Puro-Ub-R-YFP and helper vectors psPAX2 and pMD2.G using Calcium Phosphate Mammalian Transfection Kit (631312-Takara bio). After 48 h supernatants containing Ub-R-YFP lentivirus were collected and target cells were infected under the presence of […] polybrene. After 24 hours, the media of the cells were replaced with media containing […] puromycin for 6 days. Then living cells were combined in a pool. Infected clones were maintained in the presence of 250 ng/ml puromycin.

Where a name gives a salt, the structure may show the parent alone. Read-outs that look alike come from different tables or passages of the source. Peptide text beside a SMILES is read from it. * marks the point of attachment. Cbz = O=C(OCc1ccccc1)*

Turning to `CN1C(=O)[C@]23CC4=CC=C[C@H](O)[C@H]4N2C(=O)[C@@]1(CO)SS3` [Gliotoxin], the “chemotrypsin activity of proteasome at low dose of Gliotoxin” value on proteasome [1] (5 uM, compared to control) is “not statistically changed”. Also, the “chemotrypsin activity of proteasome at high dose of gliotoxin” value at proteasome [1] (25 uM, in the presence of NMDR blockers) was “inhibited”.

For `OO` [H2O2], the “GFP signal of p21-GFP” value in the assay on p21-GFP fusion protein was “increased the GFP signal dramatically”.

Consider `Cc1cc(C(=O)CN2CCCC2)c(C)n1-c1ccc(F)cc1` [IU1], for which the “trypsin, chemotrypsin and caspase-like proteasome activities” value on proteasome [1] is on record as “increases”.

With `C[C@]12N[C@H](Cc3ccccc31)c1ccccc12` [MK801, (5S,10R)-(+)-5-Methyl-10,11-dihydro-5H dibenzo [a,d]cyclobepten-5,10-imine maleate], the “life span of mice with Gaucher disease symptoms” value was “dramatically extended” in the assay with mice with GD symptoms and “increase” in the assay on mice with GD symptoms (listed as MK-801). Also, the “trypsin, chemotrypsin and caspase-like proteasome activities” value on proteasome [2] and at proteasome [1] was “increased” in each case.

With `CC(C)C[C@@H](C=O)NC(=O)[C@H](CC(C)C)NC(=O)[C@H](CC(C)C)NC(=O)OCc1ccccc1` [Mg132] (Cbz-Leu-Leu-Leu-aldehyde), the “trypsin activity of proteasome” value at proteasome [1] (whole cell, HepG2, T98G and Hep3B) is given as “did not inhibit”. In addition, the “chemotrypsin activity of proteasome” value on proteasome [1] (whole cell, substance alone) is “inhibits”.

On to `CCOC(=O)c1ccc(N2NC(=O)/C(=C/c3ccc([N+](=O)[O-])o3)C2=O)cc1` [PYR41], for which the Ub-YFP degredation result in the assay with Ub-YFP (Hep3B expressing Ub-YFP) is “inhibits”. Besides, the YFP protein amount result with Ub-YFP (Hep3B, western blot) is given as “increase”. For the same compound, the “p21-GFP fusion protein / GFP amount” value with p21-GFP fusion protein is reported as “increase”.
